# Experimental data as given in patent publication US9757330B2, “Recipe for in-situ gel, and implant, drug delivery system formed thereby” (INDUSTRIAL TECHNOLOGY RESEARCH INSTITUTE, priority 2013, dated 2017).
# Assay: in-vitro release of risperidone from the in-situ hydrogel into PBS
# Assay type: physicochemical
# Conditions: agarose/urea in-situ hydrogel, Millicell insert in 7.5 ml PBS, HPLC, on the 28 day
# Method: 800 μl of the stock solution was mixed with 200 μl of DI water containing dispersed risperidone (20 mg/ml). Then, 150 μl of the solution was added into 12-well Millicells and immersed the insert into 7.5 ml of PBS. The PBS solution was taken out at designated time point and replaced with fresh PBS. The concentration of risperidone was measured via HPLC. The release profile of risperidone from the in-situ hydrogel reached 86% on the 28 day (FIG. 2).
smiles,measurement,value
Cc1nc2n(c(=O)c1CCN1CCC(c3noc4cc(F)ccc34)CC1)CCCC2 [risperidone],release of risperidone from the in-situ hydrogel,86%
